This note sets out measurements from publication PMC11984388, “A brain-accessible peptide modulates stroke inflammatory response and neurotoxicity by targeting BDNF-receptor TrkB-T1 specific interactome” (Theranostics, 2025).

Data set [1] can be described thus: Beam walking test after photothrombotic ischemia. The note with it: contralateral hind paw slips, beam walking 24 h after insult, 3 nmol/g i.v. 1 h after damage, mean ± SEM, n = 10-12. Format: in vivo, mice.
Data set [2] deals with neurons of primary cortical cultures. The data set can be described thus: Neuronal viability (MTT) under NMDA excitotoxicity. In kind it is cell-based, rat. On the procedure:
Cultures were prepared from cerebral cortex of 18-day-old Wistar rat embryos, both genders indistinctly included. Unless otherwise indicated, glial growth was inhibited after 7 days in vitro (DIVs), experimental treatments taking place after 12 DIVs. These cultures present a high percentage of neurons, combined with glial cells, mostly astrocytes. To induce excitotoxicity, cultures were incubated with NMDA (100 µM) and its co-agonist glycine (10 µM), herein denoted simply as NMDA, which induce a strong excitotoxic response in mature neurons but have no effect on astrocyte viability,[47]. When indicated, cultures were preincubated for 30 min with indicated concentrations of Tat-derived CPPs before NMDA treatment, peptides being kept in the medium along treatment. Total cell or neuronal viability assessment was established by the thiazolyl blue formazan (MTT) reduction assay. Further details are provided as Supplementary material. […]
skull for 10 min. Br ain injury encompas se s damage to vas cular endothelium, platelet activation, and subs equent microvascula r thrombotic occlus ion of the irradiate d region. The ar eas underneath this ste reotaxic position that result irradiate d ar e the prima ry motor cortex and the prima ry soma tos ens ory cortex (hindlimb and forelimb). Once completed surgery, the incision was sutured, and mice were allowed to recover.
For neuroprote ction experiments, a single dose (3 nmol/g) of peptides TMyc or TT1Ct (> 95% purity; GenScript), solubilized as 2.5 mM solutions in 0.9% NaC l, we retro-orbita lly injected 1 h af ter damage initiation. In order to improve their plas ma sta bility, thes e peptides ar e N- and C-ter modifie d by, respec tive ly, ace tyl and amide groups. Mi c e were not subje cted to other procedures before isc hemia and were naive to drug or peptide treatment. Animals were randomly allocated to the experimental groups and the resea rc hers doing the experiments were blind respec t to treatment. There was not a previous es tima tion of sa mple si z e and experiments were independently car r ied out as indicated. Twenty-four hours af ter damage induction, animals completed the beam walking test and were subs equently sa cri f i ced by cervical disloca tion to meas ure the infarc t volume, as indicated below. Be fore that, brains were se ctioned into se ri al 1-mm-thick coronal sl i ce s using a mouse brain matrix (Stoe lting, Wood Dale, IL, USA), and se ctions were completely sta ine d with 2% TTC at room temperature to visua liz e the cortical infarc ts . For immunohistochemis try, animals were deeply anes thetized 5 or 24 h af ter brain damage and intra cardially perfus ed with cold PBS and 4% paraformalde hyde in PBS as indicated below.
Primary cultures of rat cor tic al neurons to study in vitro excitotoxicity The diss ected cerebral cortices of Wis ta r rat embryos (E18), both genders included, were mechanic ally diss ociated in culture medium (Minimum Esse ntia l Me dium, ME M, Life Technologies) follow ed by se eding of the cell sus pens ion at a dens ity of 1.1x10^6 cells /ml, prepared in the sa m e medium supple me nted with 22.2 mM glucos e, 0.1 mM glutamax, 5% foetal bovine se rum (FBS), 5% donor horse se rum (HS), 100 U/ml penicillin and 100 µg/ml streptomycin. Be fore se eding, the plates were treated overnight at 37°C with 100 µg/ml poly-L-lysine and 4 µg/ml laminin. The cells were incubated at 37°C in an atmosphe re of 5% CO2 and 95% humidity. Generally, glial growth was inhibited af ter 7 days in vitro (DIV s) by adding 10 µM 5 cytos ine β-D-arabinofuranos ide (AraC) and experimental treatments took place af ter 12 DIVs. Excitotoxicity was induced by incubation with NM DA (100 µM) and glycine (10 µM) for the indicated times. As indicated, cultures were preincubated with Tat-derived CP P s before […]
Mi c e had to walk through a narrow beam (1 m × 1 cm × 1 cm) placed 50 cm above the tabletop, going from an aversive stimulus (60-W light bulb) to a black goal box with nes ting material. […]

Data set [3] in a line: Infarct volume after photothrombotic permanent ischemia. In kind it is in vivo, mice. The settings on record: 24 h, TTC, relative to hemisphere volume. How it is done: Permanent focal ischemia was induced in cerebral cortex of adult male and female mice by microvascular photothrombosis as described with modifications. Brain injury involves vascular endothelium damage and platelet activation, followed by microvascular thrombotic occlusion of a particular region selected for illumination using a stereotaxic frame. Coordinates were +0.2 AP, +2 ML relative to Bregma and damaged area corresponded to primary motor and somatosensory cortex. For neuroprotection, a single dose (3 nmol/g) of peptides TMyc or TT1Ct (see below) was administered 1 h after damage initiation. Further details of the procedures, including measurement of infarct volume and evaluation of motor coordination and balance, are detailed as Supplementary material.
Antibodies, chemica ls and recombinant proteins, cell-penetrating peptides , prime rs , commercial as says , experimental models, recombinant DNAs and software ar e des cribe d in the Table S1, included as Supplementary material.
Animal procedures were performed follow ing Europea n Union Directive 2010/63/ EU and were approved by the CS I C and Comunidad de Ma drid (Ref PROEX 276.6/20) ethics committees.
Hous ing facilities were approved by Comunidad de Ma drid (#ES 280790000188) and conform to official regulations. Animals had sta ndard health and immune sta tus and were looked af ter by profes sional caretake rs daily. Ma l e and female mice were kept in groups of up to five in sta ndard IVC cage s while 1–2 pregnant rats occupied sta ndard cage s, always containing bedding and nes ting materials. Animals were under controlled lighting conditions (12 h light cycles ), relative humidity and temperature. Irradiated food and water were provided ad libitum.
We trie d to minimiz e animal suffering and reduce the number of sa cri f i ced animals .
Mi c e model of isc he mia by microv ascular photothr ombosis to study in vivo excitotoxicity This model of permanent focal isc hemia mimics embolic or thrombotic occlus ion of sm a ll ar ter ie s, which is freque ntly found in human stroke, and caus es a focal brain damage with histological and MR I corre lations to human patterns. The procedure was as previously des cribe d with some modific ations . Ma l e and female Ba lb/c OlaHsd mice (23–31 g; 10–16 weeks of age; Envigo Rms , Spain S.L.) were allowed to acc limatize to our facilities for at least 1 week af ter delivery, before isc hemic induction. They were kept with the sa m e cage mates, and daily examined to chec k their health sta tus . Mi c e were anes thetized with isoflurane (5% for induction, 2% for maintenance in oxygen; Abbot Labora tories , Ma drid, Spain) and then placed in a ste reotaxic frame (Naris hige Group, Tokyo, Ja pan). Body temperature was maintained at 36–37°C using a se l f-regulating heating blanket (Cibertec, Ma drid, Spain). A midline sc al p incision was made, the skull was expos ed, and both Bregma and Lambda points were identifie d.
A cold- light (Sc hott KL 2500 LCD; Schott Glas s, Ma inz, Germany) with a fibre optic bundle of 1.5 mm in diameter was centred using a micromanipula tor on the right side , at 0.2 mm anterior and 2.0 mm lateral (+0.2 AP, +2 ML ) relative to Bregma. […] Five minutes later, the brain was illumina ted (600 lms, 3,000 K) through the intact […]
skull for 10 min. Br ain injury encompas se s damage to vas cular endothelium, platelet activation, and subs equent microvascula r thrombotic occlus ion of the irradiate d region. The ar eas underneath this ste reotaxic position that result irradiate d ar e the prima ry motor cortex and the prima ry soma tos ens ory cortex (hindlimb and forelimb). Once completed surgery, the incision was sutured, and mice were allowed to recover. […]

A short description of data set [4]: Peptide delivery to brain cortex of undamaged animals. Format: in vivo. The settings on record: 3 nmol/g i.v. (retro-orbital), undamaged male mice, sacrificed 30 min after; Fluorescein Avidin D (Fig S5). On the procedure: (§1) Vehicle (saline), Bio-TMyc or Bio-TT1Ct (3 nmol/g) were retro-orbitally injected in mice one hour after induction of photothrombotic damage or, alternatively, undamaged animals. In the first case, animals were sacrificed 5 h after damage induction while, the second group was sacrificed 30 min after peptide administration. The details of brain fixation and cryoprotection for peptide visualization and/or immunohistochemistry are provided in the Supplementary material. […]
(§2) Finally, the sa mple s were mounted in Prolong Diamond. The images were acquired using an inverted Zeiss LSM 710 laser confocal microscope (Jena, Germany) with a 40x or 63x Plan-Apochromatic oil immersion objective. Images corre spond to single se ctions and were normalized for eac h colour se para tely and process ed for presenta tion with ImageJ (NIH Image) and Fiji.
(§3) Peptide visualization and immunohistochemis tr y in brain cortex
(§4) For peptide visua liz ation in undamaged or damaged brains, animals were deeply anes thetized and intra cardially perfus ed with cold PBS and 4% paraformalde hyde in PBS. Brains were post-fixed in the sa m e fixative at 4°C for 24 h and cryoprote cted in 30% suc ros e for 48 h at 4°C. […]

A short description of data set [5]: Peptide detection in brain cortex after photothrombotic ischemia. In kind it is in vivo. The note with it: 3 nmol/g i.v. 1 h after damage, male and female mice sacrificed 5 h post-stroke; Fluorescein Avidin D (Fig 5C). How it is done: as §1, §2, §3, §4

Residues, ends and D or L forms follow the SMILES beside them. *: point of attachment. Biotin = O=C1N[C@H]2[C@H](CS[C@H]2CCCCC(=O)*)N1

As for “Ac-YGRKKRRQRRRAEEQKLISEEDLLR-NH2 [TMyc, reference compound]”, the values for the Number of slips in data set [1] (female mice) and in data set [1] (male mice) were 5 ± 1 and 10 ± 1, respectively. The Neuronal viability in data set [2] (CPPs 0: peptide and NMDA (100 µM) at the same time, viability after 4 h of excitotoxicity, relative to untreated cells (100%), mean, n = 4-8 (Fig S4)) came out at 36%; in data set [2] (CPPs 30: peptide added 30' post-NMDA (100 µM), viability after 4 h of excitotoxicity, relative to untreated cells (100%), mean, n = 4-8 (Fig S4)), 37%; in data set [2] (CPPs 60: peptide added 60' post-NMDA (100 µM), viability after 4 h of excitotoxicity, relative to untreated cells (100%), mean, n = 4-8 (Fig S4)), 37%; in data set [2] (dose-response experiment (Fig 3B): peptide 15 µM preincubated 30 min, NMDA 2 h, mean ± SEM, n = 8), 13 ± 9%. Further, the “Infarct volume (%)” value in data set [3] (female mice, 3 nmol/g i.v. 1 h after damage, mean, n = 9-10) turned out to be 15 ± 2%; in data set [3] (male + female mice, 3 nmol/g i.v. 1 h after damage induction, mean ± SEM, n = 19, n = 20) it was 17 ± 2%; in data set [3] (male mice, 3 nmol/g i.v. 1 h after damage, mean, n = 9-10) it was 20 ± 1%.

With `CC[C@H](C)[C@H](NC(=O)[C@H](CCCCN)NC(=O)[C@H](Cc1c[nH]cn1)NC(=O)[C@H](Cc1ccccc1)NC(=O)[C@H](CC(C)C)NC(=O)[C@@H](NC(=O)[C@H](Cc1ccccc1)NC(=O)[C@@H]1CCCN1C(=O)[C@@H]1CCCN1C(=O)[C@H](CCCNC(=N)N)NC(=O)[C@H](CCCNC(=N)N)NC(=O)[C@H](CCCNC(=N)N)NC(=O)[C@H](CCC(N)=O)NC(=O)[C@H](CCCNC(=N)N)NC(=O)[C@H](CCCNC(=N)N)NC(=O)[C@H](CCCCN)NC(=O)[C@H](CCCCN)NC(=O)[C@H](CCCNC(=N)N)NC(=O)CNC(=O)[C@H](Cc1ccc(O)cc1)NC(=O)CCCC[C@@H]1SC[C@@H]2NC(=O)N[C@@H]21)C(C)C)C(=O)N1CCC[C@H]1C(=O)N[C@@H](CC(C)C)C(=O)N[C@@H](CC(=O)O)C(=O)NCC(N)=O` [Bio-TT1Ct] (Biotin-YGRKKRRQRRRPPFVLFHKIPLDG-NH2), the “Crossing of the BBB and delivery to cortical cells” value in data set [4] was “able to cross the BBB and efficiently reach most cortical cells in 30 min”. The “Time of peptide detection in brain cortex after administration” value in data set [5] was “at least 4 h”.
